Reference: US20150087856A1, “MELANIN PRODUCTION INHIBITOR” (TAKASAGO INTERNATIONAL CORPORATION, priority 2012, published 2015)

How the values were obtained:
Assay type in all cases: cell-based
[1] = test system: B-16 melanoma cells; assay: Visual Evaluation Test for Melanin Production Inhibition in Pigment Cells; design: key to Visual evaluation of melanin production inhibition (whiteness of cell sediment): −: The same as the solvent control (black); +: Slightly different from the solvent control (dark gray); ++: Apparently different from the solvent control (light gray); +++: Cells were not colored (white); conditions: for Visual evaluation of melanin production inhibition (whiteness of cell sediment): B-16 melanoma cells, four days
Procedure: In plastic culture flasks (25 cm^2), B-16 melanoma cells were seeded at 5×10^4 per flask, and cultured in DMEM (Dulbecco's Modified Eagle's Medium) containing 10% serum [Nippon Suisan Kaisha, Ltd, trade name] in the presence of 5% carbon dioxide at a temperature of 37° C. On the next day, each test sample diluted with ethanol was added at concentrations in the medium of 3.13, 6.25, 12.5, 25, and 50 ppm, and the cells were cultured for further four days. After the culturing was finished, the medium was removed, and the cells were rinsed with phosphate buffered solution (hereinafter, referred to as PBS). Then, the cells were detached from each flask by using trypsin-containing PBS, and were harvested from the cell suspension by centrifugation. After the obtained cells were rinsed once with PBS, the whiteness of the sediment was visually observed. Compounds 2A and 2B were used as comparative materials.
Activity: The activity was evaluated by using the following four grades. −: The same as the solvent control (black) +: Slightly different from the solvent control (dark gray) ++: Apparently different from the solvent control (light gray) +++: Cells were not colored (white)

[2] = test system: B-16 melanoma cells; assay: Quantification Test for Melanin Production Inhibition in Pigment Cells (melanin inhibition ratio); conditions: 6.25 ppm; for Melanin production inhibition ratio: B-16 melanoma cells, two days; for Melanin production-inhibitory activity compared with arbutin in the quantification test: comparison with arbutin
Procedure: (§1) In plastic culture flasks (25 cm^2), B-16 melanoma cells were seeded at 5×10^4 per flask, and cultured in DMEM containing 10% serum in the presence of 5% carbon dioxide at a temperature of 37° C. After culturing for three days, each test sample diluted with ethanol was added at a concentration in the medium of 6.25 ppm, and the cells were culture for further two days. After the culturing was finished, the medium was removed, and the cells were rinsed with phosphate buffered solution (hereinafter referred to as PBS). Then, the cells were detached from each flask by using trypsin-containing PBS, and harvested from the cell suspension by centrifugation. To the obtained cells, 2 ml of DMEM was added, and the cells were dispersed by gentle pipetting. Of the DMEM, 100 μl was diluted with DMEM to achieve 1×10^4 to 5×10^5 cells/ml. Then, the number of the cells was counted with Scepter™ 2.0 automated cell counter (Merck Millipore), and the cell growth ratio was determined. The cell growth ratio was determined by the following formula.
The rest of the cell suspension was again centrifuged, and the medium was removed. After that, an operation in which the cells were rinsed with 1 ml of very cool 5% trichloroacetic acid and centrifuged was repeated three times, and further the cells were rinsed twice by adding 1 ml of ethanol/ethyl ether (3:1 volume ratio) and centrifuged. Finally, the cells were rinsed once with 1 ml of ethyl ether, centrifuged, and air-dried over night. To the dried cells, 2 N NaOH was added, and melanin in the cells was dissolved in a water bath of 60° C. After cooling, the absorbance at 415 nm was measured by using a microplate reader (BIO-RAD MICROPLATE READER Benchmark-). From the measured value, the amount of melanin per 10^6 cells was calculated by conversion using a standard curve obtained by using synthesized melanin (NACALAI TESQUE, INC.), and the melanin inhibition ratio was determined. The melanin inhibition ratio was determined by the following formula:
Melanin inhibition ratio (%)=[(amount of melanin of control−amount of melanin of sample)/(amount of melanin of control)]×100

[3] = test system: B-16 melanoma cells; assay: Cell growth ratio in the quantification test (cell count); conditions: 6.25 ppm, two days, relative to control
Procedure: as §1
Cell growth ratio (%)=(number of cells of sample/number of cells of control)×100

Molecule	Visual evaluation of melanin production inhibition (whiteness of cell sediment) ([1]; 6.25 ppm in medium)	Visual evaluation of melanin production inhibition (whiteness of cell sediment) ([1]; 12.5 ppm in medium)	Visual evaluation of melanin production inhibition (whiteness of cell sediment) ([1]; 25 ppm in medium)	Visual evaluation of melanin production inhibition (whiteness of cell sediment) ([1]; 50 ppm in medium)	Visual evaluation of melanin production inhibition (whiteness of cell sediment) ([1]; 3.13 ppm in medium)	Activity compared with arbutin in the visual evaluation test ([1]; comparison with arbutin)	Melanin production inhibition ratio [2] [%]	Melanin production-inhibitory activity compared with arbutin in the quantification test [2]	Cell growth ratio [3] [%]	Activity compared with arbutin in the visual evaluation test at 6.25 ppm ([1]; 6.25 ppm, comparison with arbutin)
CCNC(=O)C1CC(C)CCC1C(C)C (stereo not shown) [Compound 2A, N-ethyl-5-methyl-2-isopropylcyclohexane carboxamide, reference compound]	−	+	++	+++						
CC(O)CC(=O)OC1CC(C)CCC1C(C)C (stereo not shown) [Compound 1D, 2-isopropyl-5-methylcyclohexyl 3-hydroxybutyrate]	++	+++			−	almost the same activity as that of arbutin	52.8	higher melanin production-inhibitory activity than arbutin	104.9	
CNC(=O)C(C)(C(C)C)C(C)C [Compound 2B, N,2,3-trimethyl-2-isopropylbutanamide, reference compound]			−	+						
CC1CCC(C(C)C)C(OCC(O)CO)C1 (stereo not shown) [Compound 1B, 3-(2-isopropyl-5-methylcyclohexyloxy)propane-1,2-diol]	++				+		37.0	higher melanin production-inhibitory activity than arbutin	93.2	
CC(=O)CC(=O)OC1CC(C)CCC1C(C)C (stereo not shown) [Compound 1G, 2-isopropyl-5-methylcyclohexyl 3-oxobutyrate]	+++	+++			+		41.5	higher melanin production-inhibitory activity than arbutin	87.8	higher activity than arbutin
CC1CCC(C(C)C)C(OCCCO)C1 (stereo not shown) [Compound 1C, 3-(2-isopropyl-5-methylcyclohexyloxy)propan-1-ol]	++	+++			−	almost the same activity as that of arbutin	52.0	higher melanin production-inhibitory activity than arbutin	103.1	
2-isopropyl-5-methylcyclohexanols [Compound 1H]	++	+++			+	almost the same activity as that of arbutin	49.0	higher melanin production-inhibitory activity than arbutin	102.1	
CC(C)[C@@H]1CC[C@@H](C)C[C@@H]1O (relative stereo) [Compound 1I, (1S*,2S*,5R*)-2-isopropyl-5-methylcyclohexanol]	+	+++								
CC(C)[C@H]1CC[C@@H](C)C[C@H]1O (relative stereo) [Compound 1K, (1R*,2R*,5R*)-2-isopropyl-5-methylcyclohexanol]	+	+++								
CC1CCC(C(C)C)C(OCCOCCO)C1 (stereo not shown) [Compound 1E, 2-(2-(2-isopropyl-5-methylcyclohexyloxy)ethoxy)ethanol]	+	++			−		23.3		96.4	
CC(O)COC1CC(C)CCC1C(C)C (stereo not shown) [Compound 1F, 1-(2-isopropyl-5-methylcyclohexyloxy)propan-2-ol]	++	+++				almost the same activity as that of arbutin				
OC[C@H]1O[C@@H](Oc2ccc(O)cc2)[C@H](O)[C@@H](O)[C@@H]1O [Arbutin, arbutin, reference compound]	++	+++			+		35.5		94.1	
CC(C)[C@H]1CC[C@@H](C)C[C@@H]1O (relative stereo) [Compound 1J, (1S*,2R*,5R*)-2-isopropyl-5-methylcyclohexanol]	+	+++								
C=C(C)[C@@H]1CC[C@@H](C)C[C@H]1O [Compound 1A, (1R,2S,5R)-5-methyl-2-isopropenylcyclohexanol]	−	++	+++							
